Results taken from patent US11813353B2, “Pharmaceutical compositions for the nasal administration of a cobalamin compound” (INNOTESTO BV, priority 2020, dated 2023).
Where two headings read alike, the source gives them in different places.

How the values were obtained:
[1] = Nasal absorption of hydroxocobalamin nasal spray in healthy volunteers; type: in vivo, human
Description: Healthy volunteers received a dose of 500 μg hydroxocobalamin in 50 μl nasal spray containing as main constituents hydroxocobalamin, mannitol 10% w/v, propylene glycol 10% v/v and water (total dose 500 μg hydroxocobalamin HCl) using an Aptar VP7 spray pump. The following increases of hydroxocobalamin blood levels (increase from C t=0 to Cmax after 30 minutes) were measured: […]

[2] = 6 Crohn's disease patients, 1500 μg nasal, cited from earlier work
[3] = geriatric patients, cited from earlier work
nasal epithelial cells = details: 1% concentration; cited from earlier work
[4] = about 0.1% (w/w); versus benzalkonium chloride; cited from earlier work
[5] = healthy volunteers, 500 μg nasal spray

C/C1=C2/[N-][C@H]([C@H](CC(N)=O)[C@@]2(C)CCC(=O)NC[C@@H](C)OP(=O)([O-])O[C@H]2[C@@H](O)[C@@H](n3cnc4cc(C)c(C)cc43)O[C@@H]2CO)[C@]2(C)N=C(/C(C)=C3N=C(/C=C4N=C1[C@@H](CCC(N)=O)C\4(C)C)[C@@H](CCC(N)=O)[C@]\3(C)CC(N)=O)[C@@H](CCC(N)=O)[C@]2(C)CC(N)=O.[Co+3].[OH-] [hydroxocobalamin]
irritation in the nose [1, 5]: None of the volunteers
presence of red crustae in the nose afterwards [1, 5]: None of the volunteers
CV (coefficient of variation) of mean increase ([1]; healthy volunteers, 500 μg nasal spray, mannitol 10% w/v, propylene glycol 10% v/v): 23%
vitamin B12 Cmax levels ([1]; healthy volunteers, 500 μg nasal spray, exceeded in none of the volunteers): ≤ 1500 pg/mL
Mean increase per 500 μg Hydroxocobalamin ([1]; healthy volunteers, nasal spray, mannitol 10% w/v, propylene glycol 10% v/v, water, SD=127 pg/ml): 549 pg/mL
increase of hydroxocobalamin blood levels, alternative composition ([1]; nasal spray with mannitol 5% w/v, propylene glycol 15% v/v and water): Comparable results
mean increase in vitamin B12 level ([2]; three days, SD 645 pg/ml): 1520 pg/mL
CV (coefficient of variation) of mean increase [2]: 42.5%
Cmax levels (±SD) after nasal administration ([3]; dose of 750 μg): 2.7 ± 1.2 ng/mL
Cmax levels (±SD) after nasal administration ([3]; dose): 4.7 ± 3.4 ng/mL

OC[C@@H](O)[C@@H](O)[C@H](O)[C@H](O)CO [mannitol]
cellular damage (nasal epithelial cells): no cellular damage

C/C=C/C=C/C(=O)[O-].[K+] [potassium sorbate]
safety as a preservative in nasal products [4]: much more safe than benzalkonium chloride
